Laboratory results as given in patent publication US12350273B2, “Treatment of SMA” (Hoffmann-La Roche Inc., priority 2017, dated 2025).

How the values were obtained:
[1] = test system: FoxM1; assay: Alternative splicing of FoxM1 in SMA Type 1 patient fibroblasts (RT-qPCR); assay type: cell-based; conditions: Homo sapiens, Fibroblast, 24 hours, read-out: EC50 for FoxM1 full-length (FL) mRNA
Procedure: FIG. 4: Alternative Splicing of FoxM1 In Vitro • SMA Type 1 patient fibroblasts were treated with RO7034067 for 24 hours, and FoxM1 full-length (FL) and exon 9-lacking (Δ9) mRNAs were analyzed by RT-qPCR. Data represent means±SEM of 6 repetitions and are expressed as fold change vs. untreated controls.
FoxM1, a gene alternatively spliced by other splicing modifier compounds, encodes a cell cycle regulator. […] Increased abundance of the FoxM1A isoform, together with decreased abundance of FoxM1 isoforms lacking exon 9, has the capability to disturb and inhibit cell cycle progression if splicing changes are at a level that is biologically significant. Thus, RO7034067 acts in a similar way on the SMN2 and FoxM1 splicing machinery, but with opposing outcomes with regard to protein function. MADD, a gene involved in apoptosis processes, has also been identified as a secondary splice target.

[2] = test system: FOXM1B/C transcript variants; assay: FOXM1B/C mRNA expression in Cynomolgus monkey iPSCs (RT-qPCR); assay type: cell-based; conditions: 24 h; for Mean FOXM1B/C relative mRNA expression (2-ΔΔCt vs control): Cynomolgus monkey iPSCs
Procedure: FIG. 5A-FIG. 5B: Effect of RO7034067 on FOXM1 mRNA expression levels in human and Cynomolgus monkey iPSCs • Cells were treated with RO7034067 for 24 hours, and FOXM1 B/C transcript variants were analyzed by RT-PCR. Data represent means±SEM of 3 repetitions and are expressed as fold change vs. controls. IC50 values are indicated. FIG. 5A. human iPSCs. FIG. 5B. Cynomolgus monkey iPSCs
Human iPSCs (hIPS_Neo_Clone_1) were cultivated in mTeSR1 (Stem Cell Technologies) as standard medium and Cynomolgus monkey iPSCs (cips_54-1285_cFIB_Clone_8) in MT medium supplemented with 10 ng/ml ActivinA and 15 ng/ml FGF2.
For gene expression profiling, stem cells were detached with Accutase (Stem Cell Technologies) and plated in 12 well plates coated with Matrigel (BD Biosciences) in the respective standard medium supplemented with 10 μM Rock inhibitor Y-27632 (Sigma-Aldrich). In order to obtain enough RNA, monkey stem cells were seeded at 15000 cells/cm2 and human stem cells were seeded at 40000 cells/cm2 24 h prior to treatment. Thereafter stem cells were treated for 24 h with serial dilutions (1:5) of test items in fresh, pre-warmed medium in a concentration range from 0.64 nM till ˜10 μM. To stop the experiment, cells were lysed in QiaGen's lysis buffer RLT with beta-mercaptoethanol.
Human and Cynomolgus monkey mRNA expression was measured with customized primer and FAM fluorescently-labeled Universal Probe Library (UPL) probes from Roche or probes from Microsynth containing a 5′ FAM label and a 3′ terminal BlackHole Dark Quencher 1 (BHQ1). The sequences of the primer and FAM labeled probes are listed as follows:
For quantitative Real-Time-PCR, cells cultivated in a 12 well plate and treated with Roche-compounds for 24 h were lysed in 500 ul/well of QiaGen's lysis buffer RLT with beta-mercaptoethanol. Total RNA was extracted with the RNeasy Mini kit combined with DNase treatment on a solid support. RNA integrity was controlled by using Nanodrop absorption spectroscopy and microfluidic capillary array electrophoresis profiles from an Agilent Bioanalyzer
2100. Between 300 ng to 800 ng of total RNA were reverse transcribed with oligo-dT primer and spiked MS2 RNA at 10 ng/uL final concentration using the Transcriptor First Strand cDNA Synthesis Kit (Roche Applied Science #04379012001) following the manufacturer's recommended protocol. The quantitative PCR was performed on a LightCycler 480 qPCR machine using 67.5 ng total RNA derived cDNA as input in a 20 μl mixture containing 1× LightCycler 480 Probes Master, 0.4 μM forward and reverse primers, and 0.2 μM FAM labeled hydrolysis probe. The temperature program consisted of pre-incubation at 95° C. for 10 min, followed by 50 cycles of amplification (95° C. for 10 s, 60° C. for 30 s, 72° C. for 5 s). Negative control reactions were conducted in the absence of cDNA template to confirm absence of cDNA contamination in the master mix. Measurements of Ct (cycle threshold)-values were performed for each sample-mRNA combination. Using the 2-ΔΔCt method (Livak K J et al. Method. Methods. 2001; 25(4):402-8), the data are presented as the fold change in gene expression normalized to an endogenous reference gene and relative to the untreated control. To derive individual ΔCt values, the Ct value for each target mRNA of each sample was normalized to the Ct value of the endogenous reference mRNA of GAPDH (glyceraldehyde-3-phosphate dehydrogenase). The […] was calculated by subtracting the ΔCt value of the vehicle-control group from the respective ΔCt value of each treatment group. Resultant expression ratios (2-ΔΔCt) mirrored treatment-related mRNA expression changes versus vehicle-controls. […] The model to derive the IC50 assumes that the dose response curves has a standard slope, equal to a Hill slope (or slope factor) of −1.0. Model equation: Y=Bottom+(Top-Bottom)/(1+10^((X-Log IC50))); with Y being the response data and X being log 10 concentrations in μM.

[3] = test system: MADD gene transcript; assay: 2-week dose-range finding toxicity study in cynomolgus monkey: MADD splicing in spleen, duodenum, testis; assay type: in vivo; conditions: cynomolgus monkey 2 weeks, highest dose (0.75, 1.5, 3 and 6 mg/kg/day tested); all three organs
Procedure: Similar investigations were integrated into the 2-week dose-range finding toxicity study conducted in the cynomolgus monkey with RO7034067. For this purpose, spleen, duodenum, and testis were analyzed from the animals treated with 0.75, 1.5, 3 and 6 mg/kg/day. […] Since secondary pharmacology was detected in spleen, this organ was further analyzed for transcriptome-wide mRNA splicing or expression changes by RNA-sequencing. […] Furthermore, a dose-dependent trend for pathway expression changes was not detected. Therefore, while the few changes in RO7034067-mediated alternative transcript splicing are consistent with in vitro data and those of other SMN2 splicing modifiers, they seem not to fundamentally affect biological pathways or processes under the conditions of this study.

[4] = Melanin binding in vitro; assay type: in vitro ADME
[5] = test system: human RPE cells; assay: Lysosomal function in human RPE cells in vitro; assay type: cell-based

For Cc1cn2nc(-c3cc(=O)n4cc(N5CCNC6(CC6)C5)ccc4n3)cc(C)c2n1 [RO7034067, 7-(4,7-diazaspiro[2.5]octan-7-yl)-2-(2,8-dimethylimidazo[1,2-b]pyridazin-6-yl)pyrido[1,2-a]pyrimidin-4-one], the EC50 [1] was 67 ± 32 nM, the “Mean FOXM1B/C relative mRNA expression (2-ΔΔCt vs control)” value ([2]; 0.64 nM) was 0.967 and the “Mean FOXM1B/C relative mRNA expression (2-ΔΔCt vs control)” value ([2]; 3.2 nM) was 0.990. The “Mean FOXM1B/C relative mRNA expression (2-ΔΔCt vs control)” value ([2]; 16 nM) was 0.963, the “Mean FOXM1B/C relative mRNA expression (2-ΔΔCt vs control)” value ([2]; 80 nM) was 0.704 and the “Mean FOXM1B/C relative mRNA expression (2-ΔΔCt vs control)” value ([2]; 400 nM) was 0.176. For the same molecule, the “Mean FOXM1B/C relative mRNA expression (2-ΔΔCt vs control)” value ([2]; 2000 nM) was 0.023, the “Mean FOXM1B/C relative mRNA expression (2-ΔΔCt vs control)” value ([2]; 10000 nM) was 0.037 and the IC50 ([2]; Macaca fascicularis, iPSC, monkey iPSCs, read-out: IC50 on expression levels of FOXM1B/C) was 155 nM. The “mRNA isoform specific qPCR of MADD gene transcript” value [3] was “secondary pharmacological response”, the melanin binding [4] was “high melanin binding” and the “effect on human RPE cells” value [5] was “Impairment of lysosomal function/autophagosomal accumulation”.
